Laboratory results as given in patent US20120122679A1, “MESOIONIC PESTICIDES” (E. I. Du Pont De Nemours and Company, priority 2009, published 2012).

Tested on: green peach aphid (Myzus persicae)
Experiment: Test F: control of green peach aphid on radish plant, contact and/or systemic
Type: in vivo
Conditions: sprayed at 50 ppm; assessed after 6 days
Experimental: Test compounds were formulated using a solution containing 10% acetone, 90% water and 300 ppm X-77® Spreader Lo-Foam Formula non-ionic surfactant containing alkylarylpolyoxyethylene, free fatty acids, glycols and isopropanol (Loveland Industries, Inc. Greeley, Colorado, USA). The formulated compounds were applied in 1 mL of liquid through a SUJ2 atomizer nozzle with ⅛ JJ custom body (Spraying Systems Co. Wheaton, Ill., USA) positioned 1.27 cm (0.5 inches) above the top of each test unit. Test compounds were sprayed at 250 and/or 50 ppm, and replicated three times. After spraying of the formulated test compound, each test unit was allowed to dry for 1 h and then a black, screened cap was placed on top. The test units were held for 6 days in a growth chamber at 25° C. and 70% relative humidity. Plant feeding damage was then visually assessed based on foliage consumed.
For evaluating control of green peach aphid (Myzus persicae) through contact and/or systemic means, the test unit consisted, of a small open container with a 12-15-day-old radish plant inside. […]
Test compounds were formulated and sprayed at 250 ppm and/or 50 ppm as described for Test A. The applications were replicated three times. […] Each test unit was then visually assessed for insect mortality.

Q: For O=c1c(SC(F)(F)F)c([O-])[n+](Cc2cnc(Cl)s2)c2ccccn12 [Compound 102], which “mortality (at least 80% mortality)” value is on record?
A: at least 80%
